Source: ChEMBL document CHEMBL1201862, “PubChem BioAssay data set” (2004)
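Step 1: Grow cells in 96-well plates. Step 2: Expose to compound for 48 hours at 5 concentrations. Step 3: Interpolate endpoints linearly; if unreached, use highest concentration. At the GI50, growth is halved.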 Activity calls are given as the source filed them. Rule as the data show it: active = GI50 up to about 1.1 µM and inactive = higher.

What was measured:
Test in all cases: inhibition of tumour cell growth, NCI panel, 48 h
[1] = test system: A498
[2] = test system: CAKI-1
[3] = test system: CCRF-CEM
[4] = test system: DLD-1
[5] = test system: DMS-273
[6] = test system: HCT-116
[7] = test system: HL-60
[8] = test system: IGROV-1
[9] = test system: LOX IMVI
[10] = test system: MOLT-4
[11] = test system: OVCAR-5
[12] = test system: RXF 393
[13] = test system: SK-MEL-2
[14] = test system: SK-OV-3
[15] = test system: SNB-75
[16] = test system: SW-620
[17] = test system: TK-10
[18] = test system: UACC-257
[19] = test system: BT-549
[20] = test system: MCF7

SMILES | GI50 [1] | GI50 [2] | GI50 [3] | GI50 [4] | GI50 [5] | GI50 [6] | GI50 [7] | GI50 [8] | GI50 [9] | GI50 [10] | GI50 [11] | GI50 [12] | GI50 [13] | GI50 [14] | GI50 [15] | GI50 [16] | GI50 [17] | GI50 [18] | GI50 [19] | GI50 [20]
Cc1cccc(N2C(=O)C(Cl)=C(Cl)C2=O)c1 | > 100 µM (inactive) | > 42.3 µM (inactive) | 18.5 µM (inactive) | > 43 µM (inactive) | > 100 µM (inactive) | 38.6 µM (inactive) | > 100 µM (inactive) | > 100 µM (inactive) | > 100 µM (inactive) | 33.9 µM (inactive) | > 100 µM (inactive) | 16.5 µM (inactive) | > 100 µM (inactive) | > 100 µM (inactive) | > 100 µM (inactive) | > 44 µM (inactive) | > 66.8 µM (inactive) | > 100 µM (inactive) | – | –
N#CCCN(c1ccc(/C=N/c2nc(-c3ccccc3)cs2)cc1)S(=O)(=O)c1ccccc1 | 75.9 µM (inactive) | 25.8 µM (inactive) | 48.5 µM (inactive) | 96.8 µM (inactive) | > 100 µM (inactive) | 75.3 µM (inactive) | 30.8 µM (inactive) | > 100 µM (inactive) | > 100 µM (inactive) | 44.7 µM (inactive) | > 100 µM (inactive) | – | 86.9 µM (inactive) | > 100 µM (inactive) | 19.2 µM (inactive) | 83.8 µM (inactive) | 86.5 µM (inactive) | 96.4 µM (inactive) | – | –
O=c1[nH]cc(COCCO)c(=O)[nH]1 | > 100 µM (inactive) | > 100 µM (inactive) | > 100 µM (inactive) | > 100 µM (inactive) | > 100 µM (inactive) | > 100 µM (inactive) | > 100 µM (inactive) | > 100 µM (inactive) | > 100 µM (inactive) | > 100 µM (inactive) | > 100 µM (inactive) | > 100 µM (inactive) | > 100 µM (inactive) | > 100 µM (inactive) | > 100 µM (inactive) | > 100 µM (inactive) | > 100 µM (inactive) | > 100 µM (inactive) | – | –
O=C1C=CC(=O)c2c(O)ccc(O)c21 [NAPHTHAZALIN] | 2.96 µM (inactive) | 1.27 µM (inactive) | 0.155 µM (active) | 0.326 µM (active) | 3.17 µM (inactive) | 0.9 µM (active) | 0.292 µM (active) | 7.96 µM (inactive) | 1.56 µM (inactive) | 0.15 µM (active) | 6.95 µM (inactive) | 1.03 µM (active) | 7.64 µM (inactive) | 12.7 µM (inactive) | 2.09 µM (inactive) | 0.377 µM (active) | 1.26 µM (inactive) | 1.07 µM (active) | 2.04 µM (inactive) | 2.32 µM (inactive)
O=C(CC(=O)c1ccccc1)C(=O)NC12CC3CC(CC(C3)C1)C2 | > 100 µM (inactive) | > 100 µM (inactive) | > 49.2 µM (inactive) | > 47.5 µM (inactive) | > 47 µM (inactive) | > 64.1 µM (inactive) | > 48.5 µM (inactive) | > 100 µM (inactive) | > 34.6 µM (inactive) | > 100 µM (inactive) | > 100 µM (inactive) | > 31.9 µM (inactive) | > 100 µM (inactive) | > 100 µM (inactive) | > 69.7 µM (inactive) | > 41.6 µM (inactive) | > 100 µM (inactive) | > 100 µM (inactive) | – | –
CC1(C)OCN(c2ccc(Cl)cc2)Cn2c1nc1ccccc12 | 48.9 µM (inactive) | – | 11.4 µM (inactive) | 7.6 µM (inactive) | 1.68 µM (inactive) | 15.3 µM (inactive) | 11.2 µM (inactive) | 2.44 µM (inactive) | 3.21 µM (inactive) | 11.6 µM (inactive) | > 100 µM (inactive) | 62.1 µM (inactive) | > 54 µM (inactive) | > 100 µM (inactive) | > 100 µM (inactive) | – | > 100 µM (inactive) | 39.1 µM (inactive) | > 100 µM (inactive) | 58.9 µM (inactive)
